The assay deals with T1, human somatostatin receptor subtype 5 (Homo sapiens, UniProt P35346).
T1 construct: expressed in transfected cells
The experiment in a line: cAMP assay for SST5R (inhibition of cAMP in CHO-K1 cells). The class given is cell-based. Particulars: for EC50: inhibition of cAMP via human SST5 receptor, read-out: SST5 potency. From the text:
General overview: All five SSTR subtypes are Gi coupled G-protein coupled receptors (GPCRs) that lead to decreases in intracellular cyclic AMP (cAMP) when activated by an agonist. Therefore, measurement of intracellular cAMP levels can be used to assess whether compounds of the invention are agonists of SSTR subtypes (John Kelly, Troy Stevens, W. Joseph Thompson, and Roland Seifert, Current Protocols in Pharmacology, 2005, 2.2.1-2.2). One example of an intracellular cAMP assay is described below.
cAMP Assay Protocol for SST5R:
Four days prior to the assay, 2,000 Chinese hamster ovary cells (CHO-K1, ATCC #CCL-61) stably expressing the human somatostatin receptor subtype 5 are plated in each well of a 96-well tissue culture-treated plate in Ham's F12 growth media (ThermoFisher #10-080-CM) supplemented with 10% donor bovine serum (Gemini Bio-Products #100-506), 100 U/mL penicillin; 100 µg/mL streptomycin; 2 mM L-glutamine (Gemini Bio-Products #400-110) and 0.25 mg/mL G418 Sulfate (GoldBio #108321-42-2). The cells are cultured at 37° C., 5% CO2 and 95% humidity. On the day of the assay, the media is aspirated and the cells are treated with 50 μL of 1.6 μM NKH477 (Sigma #N3290) plus various dilutions of compounds of the invention in assay buffer [1× Hank's Balanced Salt Solution (ThermoFisher #SH3058802), 0.5 mM HEPES pH 7.4, 0.1% bovine serum albumin, 0.2 mM 3-Isobutyl-1-methylxanthine (IBMX, VWR #200002-790)]. The cells are incubated for 20 minutes at 37° C. […] The cells are treated with 50 μL of lysis buffer (HRTF cAMP kit, Cisbio) for 30 minutes and then the lysate is diluted to 250 μL with assay buffer. The lysate is transferred to 384-well plates and cAMP detection and visualization antibodies are added and incubated for 1-24 hours at room temperature. The time-resolved fluorescent signal is read with a Tecan M1000Pro multiplate reader. The intracellular cAMP concentrations are calculated by regression to a standard curve and are plotted vs. the concentration of the compounds of the invention and the EC50 of the compounds are calculated using standard methods. All data manipulations are in GraphPad Prism v6 or v7.
In general terms: cAMP levels reflect the balance of adenylyl cyclase and phosphodiesterase activity.

Where two headings read alike, the source gives them in different places. Some results are limits rather than exact numbers.

T1 sequence (P35346 whole entry): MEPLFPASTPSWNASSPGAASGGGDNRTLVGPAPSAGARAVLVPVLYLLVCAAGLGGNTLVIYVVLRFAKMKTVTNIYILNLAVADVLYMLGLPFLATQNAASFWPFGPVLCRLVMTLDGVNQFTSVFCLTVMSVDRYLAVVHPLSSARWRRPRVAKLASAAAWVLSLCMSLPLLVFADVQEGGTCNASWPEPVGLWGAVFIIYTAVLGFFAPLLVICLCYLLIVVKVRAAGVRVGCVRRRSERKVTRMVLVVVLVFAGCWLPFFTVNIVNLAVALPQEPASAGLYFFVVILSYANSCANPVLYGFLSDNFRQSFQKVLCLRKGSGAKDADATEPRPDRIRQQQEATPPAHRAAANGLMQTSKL

In the case of `Cc1ncc(C(=O)N[C@@H](C)C(F)(F)F)c(N2CC[C@](C)(N)C2)c1-c1cc(F)cc(F)c1` [1-147, 4-[(3S)-3-amino-3-methylpyrrolidin-1-yl]-5-(3,5-difluorophenyl)-6-methyl-N-[(2S)-1,1,1-trifluoropropan-2-yl]pyridine-3-carboxamide], the EC50 (Table A) was < 10 nM.
With `C[C@]1(N)CCN(c2cc(C#N)ncc2C(=O)NC23CC(C2)C3)C1` [1-75, 4-[(3S)-3-amino-3-methylpyrrolidin-1-yl]-N-{bicyclo[1.1.1]pentan-1-yl}-6-cyanopyridine-3-carboxamide], the EC50 (Table A) lay within 100 to 1000 nM.
Turning to `Cc1cccc2[nH]c(-c3cncc(C(=O)N4CC(C)(C)C4)c3N3CC[C@](C)(N)C3)nc12` [2-21, (3S)-1-[3-(3,3-dimethylazetidine-1-carbonyl)-5-(4-methyl-1H-1,3-benzodiazol-2-yl)pyridin-4-yl]-3-methylpyrrolidin-3-amine], for the setting “Table A”, the EC50 lay within 10 to 100 nM.
Still for that read-out and setting: the value for `Cc1cc(-c2cncc(C(=O)N[C@@H](C)C3CC3)c2N2CC[C@](C)(N)C2)cc(C)n1` [1-131, 4-[(3S)-3-amino-3-methylpyrrolidin-1-yl]-N-[(1S)-1-cyclopropylethyl]-2′,6′-dimethyl-[3,4′-bipyridine]-5-carboxamide] was < 10 nM.
Consider `C[C@H](NC(=O)c1cnc(C(F)(F)F)c(-c2ccc(F)c(F)c2)c1N1CC[C@](C)(N)C1)C1CC1` [1-209, 4-[(3S)-3-amino-3-methylpyrrolidin-1-yl]-N-[(1S)-1-cyclopropylethyl]-5-(3,4-difluorophenyl)-6-(trifluoromethyl)pyridine-3-carboxamide], for which the EC50 by setting is: (Table A) < 10 nM; (Table B) < 10 nM. Further, the “Fold selectivity for SST5 vs SST2” value (Table B, class symbols, SST5 receptor over SST2 receptor) was “+++ (+++=>500)”.
In the case of `CCN(C)C(=O)c1cncc(-c2nc3c(C)cccc3[nH]2)c1N1CC[C@](C)(N)C1` [2-3, 4-[(3S)-3-amino-3-methylpyrrolidin-1-yl]-N-ethyl-N-methyl-5-(4-methyl-1H-1,3-benzodiazol-2-yl)pyridine-3-carboxamide], for the setting “Table A”, the EC50 is 10 to 100 nM.
The same measure, in the same setting: the same measure for `CC(NC(=O)c1cnc(C#N)c(-c2cc(F)cc(F)c2)c1N1CCC(N)C1)C(F)(F)F` (centres unmarked) [1-225, 4-(3-aminopyrrolidin-1-yl)-6-cyano-5-(3,5-difluorophenyl)-N-(1,1,1-trifluoropropan-2-yl)pyridine-3-carboxamide]: < 10 nM; for `N[C@@H]1CN(c2c(C(=O)NC34CC(C3)C4)cncc2-c2cc(F)cc(F)c2)C[C@H]1F` [1-37, 4-[(3R,4R)-3-amino-4-fluoropyrrolidin-1-yl]-N-{bicyclo[1.1.1]pentan-1-yl}-5-(3,5-difluorophenyl)pyridine-3-carboxamide]: 10 to 100 nM; for `COc1ncc(C(=O)N[C@@H](C)C(F)(F)F)c(N2CC[C@](C)(N)C2)c1-c1cc(F)cc(F)c1` [1-140, 4-[(3S)-3-amino-3-methylpyrrolidin-1-yl]-5-(3,5-difluorophenyl)-6-methoxy-N-[(2S)-1,1,1-trifluoropropan-2-yl]pyridine-3-carboxamide]: < 10 nM.
On the same count and under the same terms, the value for `Cc1ncc(C(=O)NC2CC(F)(F)C2)c(N2CC[C@](C)(N)C2)c1-c1cc(F)cc(F)c1` [1-146, 4-[(3S)-3-amino-3-methylpyrrolidin-1-yl]-N-(3,3-difluorocyclobutyl)-5-(3,5-difluorophenyl)-6-methylpyridine-3-carboxamide] was < 10 nM.
Still for that read-out and setting: the same measure for `COc1ncc(C(=O)N2CCCC(F)(F)C2)c(N2CC[C@H](N)C2)c1-c1cc(F)cc(F)c1` [1-237, (3S)-1-[3-(3,5-difluorophenyl)-5-(3,3-difluoropiperidine-1-carbonyl)-2-methoxypyridin-4-yl]pyrrolidin-3-amine]: > 1000 nM.
Take `N#Cc1cccc(-c2cncc(C(=O)NC3CCCCC3)c2N2CC[C@H](N)C2)c1` [1-7, 4-[(3S)-3-aminopyrrolidin-1-yl]-5-(3-cyanophenyl)-N-cyclohexylpyridine-3-carboxamide]: the EC50 (Table A) was in the range of 100 to 1000 nM.

Values taken from patent US12600709B2, “Nonpeptide somatostatin type 5 receptor agonists and uses thereof” (Crinetics Pharmaceuticals, Inc., priority 2019, dated 2026).
